Source: US12252524B2, “GIP/GLP1 co-agonist compounds” (Eli Lilly and Company, priority 2018, dated 2025)
Numbered stars: 1 amine (or outer) side, 2 acyl side, 3 side chain; on linkers, the order of the positions; unused ones are H or OH. Square brackets hold non-standard residues; d marks the D form. Side chains are listed from the residue outwards. Peptide text beside a SMILES is read from it. * marks the point of attachment. Malonyl(2,2-Me2,histaminyl) = CC(C)(C(=O)NCCc1cnc[nH]1)C(=O)*; C20 diacid = O=C(O)CCCCCCCCCCCCCCCCCCC(=O)*; αMePhe(2-F) = C[C@](N)(Cc1ccccc1F)C(=O)O; γGlu = O=C(O)[C@H](CCC(=O)[*:2])N[*:1]; αMeF = C[C@](N)(Cc1ccccc1)C(=O)O; αMeL = CC(C)C[C@](C)(N)C(=O)O; AEEA = NCCOCCOCC(=O)O; Aib = CC(C)(N)C(=O)O

Legend:
human Gcg receptor = target: T1, human Gcg receptor (Homo sapiens, UniProt P47871); experiment: [125I]-Glucagon binding (SPA), human Gcg receptor; conditions: read-out: hGLcgR Ki, nM (SEM, n)
T1 construct: expressed in transfected cells; crude membranes
Procedure, shortened: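 Scintillation counts are taken after membranes and WGA beads incubate and settle for 12 hours at room temperature. Buffer is 25 mM HEPES, pH 7.4, with CaCl2, MgCl2, bacitracin and Tween-20. Ki values, from four-parameter IC50 fits, are geometric means over independent days.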

human GIP receptor = target: T2, human GIP receptor (Homo sapiens, UniProt P48546); experiment: [125I]-GIP binding (SPA), human GIP receptor; conditions: read-out: hGIPR Ki, nM (SEM, n)
T2 construct: expressed in transfected cells; crude membranes
T2 sequence (P48546 22-466): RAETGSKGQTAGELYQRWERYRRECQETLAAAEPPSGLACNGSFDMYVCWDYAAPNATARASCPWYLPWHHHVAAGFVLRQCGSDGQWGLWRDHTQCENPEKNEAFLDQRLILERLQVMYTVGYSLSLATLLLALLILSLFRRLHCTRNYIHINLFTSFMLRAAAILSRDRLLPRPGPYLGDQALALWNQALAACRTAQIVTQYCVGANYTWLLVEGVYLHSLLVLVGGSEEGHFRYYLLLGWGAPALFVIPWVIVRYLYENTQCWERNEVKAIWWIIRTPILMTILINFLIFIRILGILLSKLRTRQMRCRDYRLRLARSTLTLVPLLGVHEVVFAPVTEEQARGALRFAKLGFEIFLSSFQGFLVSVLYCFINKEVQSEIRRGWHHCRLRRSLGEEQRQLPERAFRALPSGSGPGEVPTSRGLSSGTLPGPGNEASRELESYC

[1] = target: human GLP-1 receptor (GLP-1R) (Homo sapiens, UniProt P43220); experiment: cAMP pharmacological functional assay in presence of casein, hGLP-1R; format: cell-based; conditions: HEK293 cells expressing hGLP-1R, 0.1% Casein, geometric mean; read-out: hGLP1R cAMP Rel EC50 nM (SEM, n)
[2] = target: T3, gastric inhibitory peptide receptor (GIPR) (Homo sapiens, UniProt P48546); experiment: cAMP pharmacological functional assay in presence of casein, hGIPR; format: cell-based; conditions: HEK293 cells expressing hGIPR, 0.1% Casein, geometric mean; read-out: hGIPR cAMP Rel EC50 nM (SEM, n)
T3 sequence (P48546 22-466): T2 sequence (P48546 22-466)

human GLP-1R = human GLP-1R (Homo sapiens, UniProt P43220); experiment: [125I]-GLP-1 binding (SPA), human GLP-1 receptor; parameters: expressed in transfected cells; crude membranes; conditions: read-out: hGLP1R Ki, (nM) (SEM, n)
Procedure, shortened: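 Crude-membrane binding assay; one membrane prep included 1 mM MgCl2 and 25 units/ml DNAse I during lysis. Assay buffer at pH 7.4 contains 0.1% (w/v) bacitracin and 0.003% (w/v) TWEEN-20. Ki is reported as geometric mean.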

human GLP-1R, sequence (P43220 24-463): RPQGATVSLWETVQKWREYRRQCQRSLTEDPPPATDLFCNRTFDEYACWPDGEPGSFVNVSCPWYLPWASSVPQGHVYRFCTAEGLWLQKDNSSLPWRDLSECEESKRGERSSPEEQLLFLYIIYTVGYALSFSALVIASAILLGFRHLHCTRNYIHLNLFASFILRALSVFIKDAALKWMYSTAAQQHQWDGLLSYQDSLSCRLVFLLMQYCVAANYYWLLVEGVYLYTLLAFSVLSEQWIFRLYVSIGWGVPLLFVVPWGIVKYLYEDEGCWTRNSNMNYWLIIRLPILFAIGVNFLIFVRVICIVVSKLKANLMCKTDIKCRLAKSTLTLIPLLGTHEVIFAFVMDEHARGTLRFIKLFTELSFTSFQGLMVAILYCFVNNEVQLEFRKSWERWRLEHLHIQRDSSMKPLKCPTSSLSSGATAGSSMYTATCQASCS
human GLP-1 receptor (GLP-1R), sequence (P43220 24-463): as above
T1 sequence (P47871 26-477): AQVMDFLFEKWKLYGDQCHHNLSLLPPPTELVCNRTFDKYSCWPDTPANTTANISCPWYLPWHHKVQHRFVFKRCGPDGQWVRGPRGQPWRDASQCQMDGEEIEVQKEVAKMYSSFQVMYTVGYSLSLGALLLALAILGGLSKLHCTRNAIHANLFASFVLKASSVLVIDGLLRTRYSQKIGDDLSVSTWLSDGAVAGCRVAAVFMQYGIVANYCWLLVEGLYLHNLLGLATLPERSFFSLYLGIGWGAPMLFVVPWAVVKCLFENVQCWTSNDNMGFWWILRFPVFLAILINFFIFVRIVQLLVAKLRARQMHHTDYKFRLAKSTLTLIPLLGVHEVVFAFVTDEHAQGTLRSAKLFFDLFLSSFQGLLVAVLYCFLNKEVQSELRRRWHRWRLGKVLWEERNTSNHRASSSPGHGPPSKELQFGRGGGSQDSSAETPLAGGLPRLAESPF

In the case of `CC[C@H](C)[C@H](NC(=O)[C@H](CCCCN)NC(=O)[C@H](CC(=O)O)NC(=O)[C@H](CCCCNC(=O)COCCOCCNC(=O)COCCOCCNC(=O)CC[C@H](NC(=O)CCCCCCCCCCCCCCCCCCC(=O)O)C(=O)O)NC(=O)[C@H](CC(C)C)NC(=O)[C@@H](NC(=O)[C@H](CO)NC(=O)[C@H](Cc1ccc(O)cc1)NC(=O)[C@H](CC(=O)O)NC(=O)[C@H](CO)NC(=O)[C@@H](NC(=O)[C@](C)(Cc1ccccc1)NC(=O)[C@@H](NC(=O)CNC(=O)[C@H](CCC(=O)O)NC(=O)C(C)(C)NC(=O)[C@@H](N)Cc1ccc(O)cc1)[C@@H](C)O)[C@@H](C)O)[C@@H](C)CC)C(=O)N[C@@H](C)C(=O)N[C@@H](CCC(N)=O)C(=O)NC(C)(C)C(=O)N[C@@H](C)C(=O)N[C@@H](Cc1ccccc1)C(=O)N[C@H](C(=O)N[C@@H](CCC(=O)O)C(=O)N[C@@H](Cc1ccc(O)cc1)C(=O)N[C@@H](CC(C)C)C(=O)N[C@H](C(=O)N[C@@H](CCC(=O)O)C(=O)NCC(=O)NCC(N)=O)[C@@H](C)CC)[C@@H](C)CC` [Example 93] (H-Y[Aib]EGT[αMeF]TSDYSILK([AEEA-AEEA-γGlu-C20 diacid])DKIAQ[Aib]AFIEYLIEGG-NH2), the Ki (human Gcg receptor) is reported as 15.7 nM, the Ki (human GIP receptor) is reported as 0.0859 nM and the EC50 [1] is reported as 0.115 nM. The EC50 [2] was 0.185 nM and the Ki (human GLP-1R) was 1.89 nM.

In the case of `CC[C@H](C)[C@H](NC(=O)[C@H](CC(C)C)NC(=O)[C@H](Cc1ccc(O)cc1)NC(=O)[C@H](CCC(=O)O)NC(=O)[C@@H](NC(=O)[C@H](Cc1ccccc1)NC(=O)[C@H](C)NC(=O)C(C)(C)NC(=O)[C@H](CCC(N)=O)NC(=O)[C@H](C)NC(=O)[C@H](CCCCNC(=O)COCCOCCNC(=O)COCCOCCNC(=O)CC[C@H](NC(=O)CCCCCCCCCCCCCCCCCCC(=O)O)C(=O)O)NC(=O)[C@H](CCCCN)NC(=O)[C@H](CC(=O)O)NC(=O)[C@H](CC(C)C)NC(=O)[C@](C)(CC(C)C)NC(=O)[C@@H](NC(=O)[C@H](CO)NC(=O)[C@H](Cc1ccc(O)cc1)NC(=O)[C@H](CC(=O)O)NC(=O)[C@H](CO)NC(=O)[C@@H](NC(=O)[C@](C)(Cc1ccccc1)NC(=O)[C@@H](NC(=O)CNC(=O)[C@H](CCC(=O)O)NC(=O)C(C)(C)NC(=O)[C@@H](N)Cc1ccc(O)cc1)[C@@H](C)O)[C@@H](C)O)[C@@H](C)CC)[C@@H](C)CC)C(=O)N[C@@H](CCC(=O)O)C(=O)NCC(=O)NCC(N)=O` [Example 99] (H-Y[Aib]EGT[αMeF]TSDYSI[αMeL]LDKK([AEEA-AEEA-γGlu-C20 diacid])AQ[Aib]AFIEYLIEGG-NH2), the Ki (human Gcg receptor) is reported as 23.6 nM, the Ki (human GIP receptor) is reported as 0.027 nM and the EC50 [1] is reported as 0.0986 nM. It also gave an EC50 [2] of 0.0643 nM and a Ki (human GLP-1R) of 1.15 nM.

In the case of `CC[C@H](C)[C@H](NC(=O)[C@H](CC(C)C)NC(=O)[C@H](Cc1ccc(O)cc1)NC(=O)[C@H](CCC(=O)O)NC(=O)[C@@H](NC(=O)[C@H](Cc1ccccc1)NC(=O)[C@H](C)NC(=O)C(C)(C)NC(=O)[C@H](CCC(N)=O)NC(=O)[C@H](C)NC(=O)[C@H](CCCCNC(=O)COCCOCCNC(=O)COCCOCCNC(=O)CC[C@H](NC(=O)CCCCCCCCCCCCCCCCCCC(=O)O)C(=O)O)NC(=O)[C@H](CCC(=O)O)NC(=O)[C@H](CC(=O)O)NC(=O)[C@H](CC(C)C)NC(=O)[C@](C)(CC(C)C)NC(=O)[C@@H](NC(=O)[C@H](CO)NC(=O)[C@H](Cc1ccc(O)cc1)NC(=O)[C@H](CC(=O)O)NC(=O)[C@H](CO)NC(=O)[C@@H](NC(=O)[C@](C)(Cc1ccccc1)NC(=O)[C@@H](NC(=O)CNC(=O)[C@H](CCC(=O)O)NC(=O)C(C)(C)NC(=O)[C@@H](N)Cc1ccc(O)cc1)[C@@H](C)O)[C@@H](C)O)[C@@H](C)CC)[C@@H](C)CC)C(=O)N[C@@H](CCC(=O)O)C(=O)NCC(=O)NCC(N)=O` [Example 100] (H-Y[Aib]EGT[αMeF]TSDYSI[αMeL]LDEK([AEEA-AEEA-γGlu-C20 diacid])AQ[Aib]AFIEYLIEGG-NH2; N-terminus assumed), the Ki (human Gcg receptor) is reported as 44 nM, the Ki (human GIP receptor) is reported as 0.115 nM and the EC50 [1] is reported as 0.079 nM. For the same compound, the EC50 [2] was 0.12 nM and the Ki (human GLP-1R) was 4.13 nM.

`CC[C@H](C)[C@H](NC(=O)[C@H](CC(C)C)NC(=O)[C@H](Cc1ccc(O)cc1)NC(=O)[C@H](CCC(=O)O)NC(=O)[C@@H](NC(=O)[C@H](Cc1ccccc1)NC(=O)[C@H](C)NC(=O)C(C)(C)NC(=O)[C@H](CCC(N)=O)NC(=O)[C@H](C)NC(=O)[C@H](CCCCNC(=O)COCCOCCNC(=O)COCCOCCNC(=O)CC[C@H](NC(=O)CCCCCCCCCCCCCCCCCCC(=O)O)C(=O)O)NC(=O)[C@H](CCC(=O)O)NC(=O)[C@H](CC(=O)O)NC(=O)[C@H](CC(C)C)NC(=O)C(C)(C)NC(=O)[C@@H](NC(=O)[C@H](CO)NC(=O)[C@H](Cc1ccc(O)cc1)NC(=O)[C@H](CC(=O)O)NC(=O)[C@H](CO)NC(=O)[C@@H](NC(=O)[C@](C)(Cc1ccccc1F)NC(=O)[C@@H](NC(=O)CNC(=O)[C@H](CCC(=O)O)NC(=O)C(C)(C)NC(=O)[C@@H](N)Cc1ccc(O)cc1)[C@@H](C)O)[C@@H](C)O)[C@@H](C)CC)[C@@H](C)CC)C(=O)N[C@@H](CCC(=O)O)C(=O)NCC(=O)NCC(N)=O` [Example 101] (H-Y[Aib]EGT[αMePhe(2-F)]TSDYSI[Aib]LDEK([AEEA-AEEA-γGlu-C20 diacid])AQ[Aib]AFIEYLIEGG-NH2) was tested, and the Ki (human Gcg receptor) was 117 nM, the Ki (human GIP receptor) was 0.0953 nM and the EC50 [1] was 0.0579 nM. The EC50 [2] was 0.0704 nM and the Ki (human GLP-1R) was 8.1 nM.

`CC[C@H](C)[C@H](NC(=O)[C@H](CC(C)C)NC(=O)[C@H](Cc1ccc(O)cc1)NC(=O)[C@H](CCC(=O)O)NC(=O)[C@@H](NC(=O)[C@H](Cc1ccccc1)NC(=O)[C@H](CCC(=O)O)NC(=O)C(C)(C)NC(=O)[C@H](CCC(N)=O)NC(=O)[C@H](C)NC(=O)[C@H](CCCCNC(=O)COCCOCCNC(=O)COCCOCCNC(=O)CC[C@H](NC(=O)CCCCCCCCCCCCCCCCCCC(=O)O)C(=O)O)NC(=O)[C@H](CCC(=O)O)NC(=O)[C@H](CC(=O)O)NC(=O)[C@H](CC(C)C)NC(=O)[C@](C)(CC(C)C)NC(=O)[C@@H](NC(=O)[C@H](CO)NC(=O)[C@H](Cc1ccc(O)cc1)NC(=O)[C@H](CC(=O)O)NC(=O)[C@H](CO)NC(=O)[C@@H](NC(=O)[C@](C)(Cc1ccccc1F)NC(=O)[C@@H](NC(=O)CNC(=O)[C@H](CCC(=O)O)NC(=O)C(C)(C)NC(=O)[C@@H](N)Cc1ccc(O)cc1)[C@@H](C)O)[C@@H](C)O)[C@@H](C)CC)[C@@H](C)CC)C(=O)N[C@@H](CCC(=O)O)C(=O)NCC(=O)NCC(N)=O` [Example 103] (H-Y[Aib]EGT[αMePhe(2-F)]TSDYSI[αMeL]LDEK([AEEA-AEEA-γGlu-C20 diacid])AQ[Aib]EFIEYLIEGG-NH2; N-terminus assumed) showed a Ki (human Gcg receptor) of 40.3 nM, a Ki (human GIP receptor) of 0.0645 nM and an EC50 [1] of 0.101 nM. For the same compound, the EC50 [2] was 0.0693 nM and the Ki (human GLP-1R) was 6.68 nM.

`CC[C@H](C)[C@H](NC(=O)[C@H](CC(C)C)NC(=O)[C@H](Cc1ccc(O)cc1)NC(=O)[C@H](CCC(=O)O)NC(=O)[C@@H](NC(=O)[C@H](Cc1ccccc1)NC(=O)[C@H](C)NC(=O)C(C)(C)NC(=O)[C@H](CCC(N)=O)NC(=O)[C@H](C)NC(=O)[C@H](CCCCNC(=O)COCCOCCNC(=O)COCCOCCNC(=O)CC[C@H](NC(=O)CCCCCCCCCCCCCCCCCCC(=O)O)C(=O)O)NC(=O)[C@H](CCCCN)NC(=O)[C@H](CC(=O)O)NC(=O)[C@H](CC(C)C)NC(=O)[C@H](CC(C)C)NC(=O)[C@@H](NC(=O)[C@H](CO)NC(=O)[C@H](Cc1ccc(O)cc1)NC(=O)[C@H](CC(=O)O)NC(=O)[C@H](CO)NC(=O)[C@@H](NC(=O)[C@H](Cc1ccccc1)NC(=O)[C@@H](NC(=O)CNC(=O)[C@H](CCC(=O)O)NC(=O)C(C)(C)C(=O)NCCc1cnc[nH]1)[C@@H](C)O)[C@@H](C)O)[C@@H](C)CC)[C@@H](C)CC)C(=O)N[C@@H](CCC(=O)O)C(=O)NCC(=O)NCC(=O)N1CCC[C@H]1C(=O)N[C@@H](CO)C(=O)N[C@@H](CO)C(=O)NCC(=O)N[C@@H](C)C(=O)N1CCC[C@H]1C(=O)N1CCC[C@H]1C(=O)N1CCC[C@H]1C(=O)N[C@@H](CO)C(N)=O` [Example 105] ({Malonyl(2,2-Me2,histaminyl)}-EGTFTSDYSILLDKK([AEEA-AEEA-γGlu-C20 diacid])AQ[Aib]AFIEYLIEGGPSSGAPPPS-NH2) was tested, and the Ki (human Gcg receptor) was 20.4 nM, the Ki (human GIP receptor) was 0.119 nM and the EC50 [1] was 0.0401 nM. It also gave an EC50 [2] of 1.85 nM and a Ki (human GLP-1R) of 0.871 nM.
